Test results: ChEMBL document CHEMBL1201861, “Genomics of Drug Sensitity in Cancer screening data, Wellcome Trust Sanger Institute”

Experiments:
Assay in all cases: cells
Conditions in all cases: Homo sapiens
COR-L88 = format: functional, cell-based;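 also: growth inhibition of COR-L88 cells, read out with a cell viability assay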
Description: SANGER: Inhibition of human COR-L88 cell growth in a cell viability assay.

CP66-MEL = format: functional, cell-based;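 also: growth inhibition of CP66-MEL cells determined in a cell viability assay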
Description: SANGER: Inhibition of human CP66-MEL cell growth in a cell viability assay.

CW-2 = format: functional, cell-based;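 also: growth inhibition of CW-2 cells, read out by a cell viability assay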
Description: SANGER: Inhibition of human CW-2 cell growth in a cell viability assay.

Calu-6 = format: functional, cell-based;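 also: growth of human Calu-6 cells, read out by a cell viability assay, IC50 marking inhibition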
Description: SANGER: Inhibition of human Calu-6 cell growth in a cell viability assay.

D283 Med = format: functional, cell-based
Description: SANGER: Inhibition of human D-283MED cell growth in a cell viability assay.

D-502MG = format: functional, cell-based
Description: SANGER: Inhibition of human D-502MG cell growth in a cell viability assay.

DB = format: functional, cell-based
Description: SANGER: Inhibition of human DB cell growth in a cell viability assay.

DEL = format: functional, cell-based;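 also: growth inhibition of the human DEL cell line, read out with a cell viability assay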
Description: SANGER: Inhibition of human DEL cell growth in a cell viability assay.

DOHH-2 = format: functional, cell-based;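 also: growth inhibition of human DOHH-2 cells, read out with a cell viability assay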
Description: SANGER: Inhibition of human DOHH-2 cell growth in a cell viability assay.

ES3 = format: functional, cell-based;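 also: growth inhibition of ES3 cells, read out with a cell viability assay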
Description: SANGER: Inhibition of human ES3 cell growth in a cell viability assay.

ES5 = format: functional, cell-based;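 also: growth inhibition of human ES5 cells, read out by a cell viability assay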
Description: SANGER: Inhibition of human ES5 cell growth in a cell viability assay.

ES8 = format: functional, cell-based;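 also: growth inhibition of human ES8 cells, read out with a cell viability assay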
Description: SANGER: Inhibition of human ES8 cell growth in a cell viability assay.

EW-1 = format: functional, cell-based;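 also: growth inhibition of the human EW-1 cell line, read out by a cell viability assay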
Description: SANGER: Inhibition of human EW-1 cell growth in a cell viability assay.

GAK = format: functional, cell-based;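 also: cell growth inhibition read out by a cell viability assay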
Description: SANGER: Inhibition of human GAK cell growth in a cell viability assay.

GI-ME-N = format: functional, cell-based;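 also: growth inhibition of human GI-ME-N cells, read out with a cell viability assay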
Description: SANGER: Inhibition of human GI-ME-N cell growth in a cell viability assay.

GT3TKB = format: functional, cell-based;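 also: growth inhibition of the cell line, read out with a cell viability assay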
Description: SANGER: Inhibition of human GT3TKB cell growth in a cell viability assay.

HH = format: functional, cell-based
Description: SANGER: Inhibition of human HH cell growth in a cell viability assay.

HL-60 = format: functional, cell-based;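 also: growth inhibition of human HL-60 cells, read out with a cell viability assay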
Description: SANGER: Inhibition of human HL-60 cell growth in a cell viability assay.

HT-144 = format: functional, cell-based
Description: SANGER: Inhibition of human HT-144 cell growth in a cell viability assay.

HuTu80 = format: functional, cell-based, HUTU-80;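 also: growth inhibition of HuTu80 human cells, determined with a cell viability readout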
Description: SANGER: Inhibition of human HUTU-80 cell growth in a cell viability assay.

IA-LM = format: functional, cell-based;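 also: cell viability assay measuring growth inhibition of human IA-LM cells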
Description: SANGER: Inhibition of human IA-LM cell growth in a cell viability assay.

IST-MES1 = format: functional, cell-based;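 also: growth inhibition of IST-MES1 cells, measured with a cell viability assay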
Description: SANGER: Inhibition of human IST-MES1 cell growth in a cell viability assay.

J-RT3-T3-5 = format: functional, cell-based;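 also: cell viability assay measuring growth inhibition of human J-RT3-T3-5 cells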
Description: SANGER: Inhibition of human J-RT3-T3-5 cell growth in a cell viability assay.

JAR = format: functional, cell-based;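 also: growth inhibition of human JAR cells determined with a cell viability assay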
Description: SANGER: Inhibition of human JAR cell growth in a cell viability assay.

JVM-2 = format: functional, cell-based;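 also: growth inhibition of JVM-2 cells determined by a cell viability assay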
Description: SANGER: Inhibition of human JVM-2 cell growth in a cell viability assay.

K5 = format: functional, cell-based
Description: SANGER: Inhibition of human K5 cell growth in a cell viability assay.

KALS-1 = format: functional, cell-based;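 also: growth inhibition of KALS-1 cells, determined with a cell viability assay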
Description: SANGER: Inhibition of human KALS-1 cell growth in a cell viability assay.

KARPAS-299 = format: functional, cell-based
Description: SANGER: Inhibition of human KARPAS-299 cell growth in a cell viability assay.

KARPAS-45 = format: functional, cell-based;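 also: inhibition of cell line growth, read out through a viability assay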
Description: SANGER: Inhibition of human KARPAS-45 cell growth in a cell viability assay.

KM12 = format: functional, cell-based;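 also: KM12 cell growth inhibition, read out with a cell viability assay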
Description: SANGER: Inhibition of human KM12 cell growth in a cell viability assay.

KMOE-2 = format: functional, cell-based;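 also: growth inhibition of human KMOE-2 cells, read out with a cell viability assay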
Description: SANGER: Inhibition of human KMOE-2 cell growth in a cell viability assay.

L-363 = format: functional, cell-based
Description: SANGER: Inhibition of human L-363 cell growth in a cell viability assay.

LAN-6 = format: functional, cell-based;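 also: growth inhibition of LAN-6 cells, determined with a cell viability assay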
Description: SANGER: Inhibition of human LAN-6 cell growth in a cell viability assay.

LB2518-MEL = format: functional, cell-based;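 also: growth inhibition of human LB2518-MEL cells, measured with a cell viability assay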
Description: SANGER: Inhibition of human LB2518-MEL cell growth in a cell viability assay.

LC-2-ad = format: functional, cell-based;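 also: growth inhibition of human LC-2-ad cells, read out with a cell viability assay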
Description: SANGER: Inhibition of human LC-2-ad cell growth in a cell viability assay.

LOX IMVI = format: functional, cell-based
Description: SANGER: Inhibition of human LOXIMVI cell growth in a cell viability assay.

LU-134-A = format: functional, cell-based
Description: SANGER: Inhibition of human LU-134-A cell growth in a cell viability assay.

Lu-65 = format: functional, cell-based;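 also: growth inhibition of Lu-65 cancer cells, read out by a cell viability assay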
Description: SANGER: Inhibition of human LU-65 cell growth in a cell viability assay.

MEG-01 = format: functional, cell-based;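 also: growth inhibition of MEG-01 cells, read out by a cell viability assay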
Description: SANGER: Inhibition of human MEG-01 cell growth in a cell viability assay.

MHH-PREB-1 = format: functional, cell-based;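 also: cell viability assay measuring inhibition of proliferation of human MHH-PREB-1 cells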
Description: SANGER: Inhibition of human MHH-PREB-1 cell growth in a cell viability assay.

MLMA = format: functional, cell-based;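 also: growth inhibition of MLMA cells (human), determined through a cell viability readout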
Description: SANGER: Inhibition of human MLMA cell growth in a cell viability assay.

MOLT-4 = format: functional, cell-based;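 also: growth inhibition of MOLT-4 cells, determined with a cell viability readout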
Description: SANGER: Inhibition of human MOLT-4 cell growth in a cell viability assay.

MV4-11 = format: functional, cell-based, MV-4-11;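 also: cell viability readout measuring growth inhibition of human MV-4-11 cells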
Description: SANGER: Inhibition of human MV-4-11 cell growth in a cell viability assay.

MZ7-mel = format: functional, cell-based;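 also: growth inhibition of human MZ7-mel cells, measured by a cell viability assay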
Description: SANGER: Inhibition of human MZ7-mel cell growth in a cell viability assay.

NCI-H1581 = format: functional, cell-based;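 also: cell growth inhibition read out by a viability assay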
Description: SANGER: Inhibition of human NCI-H1581 cell growth in a cell viability assay.

NCI-H1770 = format: functional, cell-based;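 also: growth inhibition of NCI-H1770 cells determined with a viability readout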
Description: SANGER: Inhibition of human NCI-H1770 cell growth in a cell viability assay.

SNU1 = format: functional, cell-based;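 also: growth inhibition of human NCI-SNU-1 cells, measured with a cell viability assay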
Description: SANGER: Inhibition of human NCI-SNU-1 cell growth in a cell viability assay.

NMC-G1 = format: functional, cell-based;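 also: growth inhibition of the NMC-G1 cell line, measured with a cell viability read-out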
Description: SANGER: Inhibition of human NMC-G1 cell growth in a cell viability assay.

NTERA-2-cl-D1 = format: functional, cell-based;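 also: inhibition of cell growth, measured with a cell viability assay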
Description: SANGER: Inhibition of human NTERA-S-cl-D1 cell growth in a cell viability assay.

OCUB-M = format: functional, cell-based;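 also: growth inhibition of the cancer cell line, read out through a cell viability assay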
Description: SANGER: Inhibition of human OCUB-M cell growth in a cell viability assay.

ONS-76 = format: functional, cell-based;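 also: growth inhibition of human ONS-76 cells, read out with a cell viability assay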
Description: SANGER: Inhibition of human ONS-76 cell growth in a cell viability assay.

OVCAR-4 = format: functional, cell-based;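 also: growth inhibition of human OVCAR-4 cells, measured with a cell viability assay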
Description: SANGER: Inhibition of human OVCAR-4 cell growth in a cell viability assay.

QIMR-WIL = format: functional, cell-based;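 also: growth inhibition of QIMR-WIL cells, read out with a cell viability assay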
Description: SANGER: Inhibition of human QIMR-WIL cell growth in a cell viability assay.

RPMI-8866 = format: functional, cell-based
Description: SANGER: Inhibition of human RPMI-8866 cell growth in a cell viability assay.

RXF 393 = format: functional, cell-based;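 also: growth inhibition of human RXF 393 cells, read out with a cell viability assay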
Description: SANGER: Inhibition of human RXF393 cell growth in a cell viability assay.

SBC-1 = format: functional, cell-based;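 also: cell viability assay measuring growth inhibition of the SBC-1 cell line, IC50 being the concentration that halves growth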
Description: SANGER: Inhibition of human SBC-1 cell growth in a cell viability assay.

SHP77 = format: functional, cell-based, SHP-77;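 also: growth inhibition of human SHP-77 cells measured by a cell viability assay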
Description: SANGER: Inhibition of human SHP-77 cell growth in a cell viability assay.

SK-N-FI = format: functional, cell-based;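 also: cell viability assay measuring growth inhibition of human SK-N-FI cells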
Description: SANGER: Inhibition of human SK-N-FI cell growth in a cell viability assay.

SK-PN-DW = format: functional, cell-based;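 also: growth inhibition measured with a viability assay on these cells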
Description: SANGER: Inhibition of human SK-PN-DW cell growth in a cell viability assay.

SW 962 = format: functional, cell-based;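 also: growth inhibition of human SW962 cells, read out by a cell viability assay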
Description: SANGER: Inhibition of human SW962 cell growth in a cell viability assay.

A3-KAW = format: functional, cell-based
Description: SANGER: Inhibition of human A3-KAW cell growth in a cell viability assay.

A4-Fuk = format: functional, cell-based
Description: SANGER: Inhibition of human A4-Fuk cell growth in a cell viability assay.

A704 = format: functional, cell-based
Description: SANGER: Inhibition of human A704 cell growth in a cell viability assay.

TE-10 = format: functional, cell-based
Description: SANGER: Inhibition of human TE-10 cell growth in a cell viability assay.

TE-11 = format: functional, cell-based
Description: SANGER: Inhibition of human TE-11 cell growth in a cell viability assay.

UACC-257 = format: functional, cell-based
Description: SANGER: Inhibition of human UACC-257 cell growth in a cell viability assay.

N#C/C(=C1/Nc2ccccc2S1)c1ccnc(NCCc2cccnc2)n1
IC50 (COR-L88): > 8 µM | IC50 (CP66-MEL): > 8 µM | IC50 (CW-2): > 8 µM | IC50 (Calu-6): > 8 µM | IC50 (D283 Med): > 8 µM | IC50 (D-502MG): > 8 µM | IC50 (DB): > 8 µM | IC50 (DEL): 6.24 µM | IC50 (DOHH-2): > 8 µM | IC50 (ES3): > 8 µM | IC50 (ES5): 6.6 µM | IC50 (ES8): > 8 µM | IC50 (EW-1): > 8 µM | IC50 (GAK): 6.74 µM | IC50 (GI-ME-N): > 8 µM | IC50 (GT3TKB): > 8 µM | IC50 (HH): > 8 µM | IC50 (HL-60): > 8 µM | IC50 (HT-144): > 8 µM | IC50 (HuTu80): > 8 µM | IC50 (IA-LM): 2.73 µM | IC50 (IST-MES1): > 8 µM | IC50 (J-RT3-T3-5): > 8 µM | IC50 (JAR): > 8 µM | IC50 (JVM-2): > 8 µM | IC50 (K5): > 8 µM | IC50 (KALS-1): > 8 µM | IC50 (KARPAS-299): > 8 µM | IC50 (KARPAS-45): 6.3 µM | IC50 (KM12): > 8 µM | IC50 (KMOE-2): > 8 µM | IC50 (L-363): > 8 µM | IC50 (LAN-6): > 8 µM | IC50 (LB2518-MEL): > 8 µM | IC50 (LC-2-ad): > 8 µM | IC50 (LOX IMVI): > 8 µM | IC50 (LU-134-A): > 8 µM | IC50 (Lu-65): > 8 µM | IC50 (MEG-01): > 8 µM | IC50 (MHH-PREB-1): > 8 µM | IC50 (MLMA): > 8 µM | IC50 (MOLT-4): > 8 µM | IC50 (MV4-11): 1.43 µM | IC50 (MZ7-mel): > 8 µM | IC50 (NCI-H1581): > 8 µM | IC50 (NCI-H1770): > 8 µM | IC50 (SNU1): > 8 µM | IC50 (NMC-G1): 6.12 µM | IC50 (NTERA-2-cl-D1): > 8 µM | IC50 (OCUB-M): 1.08 µM | IC50 (ONS-76): > 8 µM | IC50 (OVCAR-4): 5.7 µM | IC50 (QIMR-WIL): > 8 µM | IC50 (RPMI-8866): > 8 µM | IC50 (RXF 393): > 8 µM | IC50 (SBC-1): > 8 µM | IC50 (SHP77): > 8 µM | IC50 (SK-N-FI): > 8 µM | IC50 (SK-PN-DW): > 8 µM | IC50 (SW 962): > 8 µM | IC50 (A3-KAW): > 8 µM | IC50 (A4-Fuk): > 8 µM | IC50 (A704): > 8 µM | IC50 (TE-10): 2.23 µM | IC50 (TE-11): 0.3 µM | IC50 (UACC-257): > 8 µM

C/C(O)=C(\C#N)C(=O)Nc1cc(Br)ccc1Br
IC50 (COR-L88): > 16 µM | IC50 (CP66-MEL): > 16 µM | IC50 (CW-2): > 16 µM | IC50 (Calu-6): > 16 µM | IC50 (D283 Med): > 16 µM | IC50 (D-502MG): > 16 µM | IC50 (DB): > 16 µM | IC50 (DEL): > 16 µM | IC50 (DOHH-2): > 16 µM | IC50 (ES3): > 16 µM | IC50 (ES5): > 16 µM | IC50 (ES8): > 16 µM | IC50 (EW-1): > 16 µM | IC50 (GAK): > 16 µM | IC50 (GI-ME-N): > 16 µM | IC50 (GT3TKB): > 16 µM | IC50 (HL-60): > 16 µM | IC50 (HT-144): > 16 µM | IC50 (HuTu80): > 16 µM | IC50 (IA-LM): > 16 µM | IC50 (IST-MES1): > 16 µM | IC50 (J-RT3-T3-5): > 16 µM | IC50 (JAR): > 16 µM | IC50 (JVM-2): > 16 µM | IC50 (K5): > 16 µM | IC50 (KALS-1): > 16 µM | IC50 (KARPAS-299): > 16 µM | IC50 (KARPAS-45): > 16 µM | IC50 (KM12): > 16 µM | IC50 (KMOE-2): > 16 µM | IC50 (L-363): > 16 µM | IC50 (LAN-6): > 16 µM | IC50 (LB2518-MEL): > 16 µM | IC50 (LC-2-ad): > 16 µM | IC50 (LOX IMVI): > 16 µM | IC50 (LU-134-A): > 16 µM | IC50 (Lu-65): > 16 µM | IC50 (MEG-01): > 16 µM | IC50 (MHH-PREB-1): > 16 µM | IC50 (MLMA): > 16 µM | IC50 (MOLT-4): > 16 µM | IC50 (MV4-11): > 16 µM | IC50 (MZ7-mel): > 16 µM | IC50 (NCI-H1581): > 16 µM | IC50 (NCI-H1770): > 16 µM | IC50 (SNU1): > 16 µM | IC50 (NMC-G1): > 16 µM | IC50 (NTERA-2-cl-D1): > 16 µM | IC50 (OCUB-M): > 16 µM | IC50 (ONS-76): > 16 µM | IC50 (OVCAR-4): > 16 µM | IC50 (QIMR-WIL): > 16 µM | IC50 (RPMI-8866): > 16 µM | IC50 (RXF 393): > 16 µM | IC50 (SBC-1): > 16 µM | IC50 (SHP77): > 16 µM | IC50 (SK-N-FI): > 16 µM | IC50 (SK-PN-DW): > 16 µM | IC50 (SW 962): > 16 µM | IC50 (A3-KAW): > 16 µM | IC50 (A4-Fuk): > 16 µM | IC50 (A704): > 16 µM | IC50 (TE-10): > 16 µM | IC50 (TE-11): > 16 µM | IC50 (UACC-257): > 16 µM
